Assays:
[1] = system: Erysiphe graminis f. sp. tritici; test: Test A: wheat powdery mildew, preventive spray on wheat seedlings, disease rating; assay type: in vivo, Erysiphe graminis f. sp. tritici (on wheat seedlings); conditions: 200 ppm test suspension sprayed to run-off (equivalent to 500 g/ha) on wheat seedlings; 100 = 100% disease control, 0 = no control; # = significant activity
Summary of the method: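 Compounds at 200 ppm (acetone 3%, 250 ppm Trem 014 in water; equivalent to 500 g/ha) sprayed to run-off on wheat seedlings, inoculated with spore dust the following day. Plants held at 20° C. for 7 days, then rated 0–100% disease control relative to untreated controls.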

Puccinia recondita = test: Test B: wheat leaf rust, preventive spray on wheat seedlings, disease rating; assay type: in vivo, Puccinia recondita (on wheat seedlings); conditions: 200 ppm test suspension sprayed to run-off (equivalent to 500 g/ha) on wheat seedlings; 100 = 100% disease control, 0 = no control; # = significant activity
Summary of the method: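 Wheat seedlings were sprayed to run-off with 200 ppm suspensions (≈500 g/ha; 3% acetone, 250 ppm Trem 014) and inoculated with Puccinia recondita spores the next day. Plants were held 24 h saturated at 20 °C, then 6 days at 20 °C. Disease control was rated 0-100 relative to untreated controls.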

Pyricularia oryzae = assay type: in vivo, Pyricularia oryzae (on rice seedlings); conditions: 200 ppm test suspension sprayed to run-off (equivalent to 500 g/ha) on rice seedlings; 100 = 100% disease control, 0 = no control; # = significant activity
Phytophthora infestans = assay type: in vivo, Phytophthora infestans (on tomato seedlings); conditions: 200 ppm test suspension sprayed to run-off (equivalent to 500 g/ha) on tomato seedlings; 100 = 100% disease control, 0 = no control; # = significant activity
Botrytis cinerea = test: Test E: gray mold, preventive spray on cucumber seedlings, disease rating; assay type: in vivo, Botrytis cinerea (on cucumber seedlings); conditions: 200 ppm test suspension sprayed to run-off (equivalent to 500 g/ha) on cucumber seedlings; 100 = 100% disease control, 0 = no control; # = significant activity
Summary of the method: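 Cucumber seedlings sprayed to run-off with 200 ppm suspension (equivalent to 500 g/ha), inoculated next day with B. cinerea spores. Kept 48 h saturated at 20 °C, then 5 days in growth chamber at 20 °C; disease control rated 0–100 relative to controls.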

Structure (SMILES) | Test A disease control rating (wheat powdery mildew) [1] | Test B disease control rating (wheat leaf rust) (Puccinia recondita) | Test C disease control rating (rice blast) (Pyricularia oryzae) | Test D disease control rating (potato and tomato late blight) (Phytophthora infestans) | Test E disease control rating (gray mold) (Botrytis cinerea)
CC(COc1ccc(Br)cc1C#N)NC(=O)C1(C)CC(C)(Cl)C1 (centres unmarked) [compound 38] | 0 (a rating of 0 indicates no disease control (relative to the controls)) | 66# % | 0 (a rating of 0 indicates no disease control (relative to the controls)) | 23% | 8%
CC(COc1cc(F)ccc1F)NC(=O)C1(C(F)(F)F)CC(C)(Cl)C1 (centres unmarked) [compound 28] | 53% | 0 (a rating of 0 indicates no disease control (relative to the controls)) | 100# (a rating of 100 indicates 100% disease control) | 0 (a rating of 0 indicates no disease control (relative to the controls)) | 0 (a rating of 0 indicates no disease control (relative to the controls))
CC(COc1ccc(F)cc1C#N)NC(=O)C1(C)CC(C)(Cl)C1 (centres unmarked) [compound 40] | 0 (a rating of 0 indicates no disease control (relative to the controls)) | 0 (a rating of 0 indicates no disease control (relative to the controls)) | 0 (a rating of 0 indicates no disease control (relative to the controls)) | 62% | 0 (a rating of 0 indicates no disease control (relative to the controls))
CC(NC(=O)C1(C)CC(F)(F)C1)c1ccc(Br)cc1 (centres unmarked) [compound 67] | 63% | 0 (a rating of 0 indicates no disease control (relative to the controls)) | 99# % | 43% | 19%
